These results are taken from patent publication US20100179122A1 (priority 2005, published 2010).

Read-outs that look alike come from different tables or passages of the source.

Test [1] addresses T1, mutant HIV reverse transcriptase (K103N mutation) (Human immunodeficiency virus type 1 group M subtype B, UniProt P04585, K690N).
T1 construct: mutations that occur in the reverse transcriptase segment of the pol gene; made in house
In words: Analogous RT inhibition assay, K103N mutant. The class given is biochemical. Here is the method:
(§1) 100 μL reaction mixtures were initiated with a combination of primer-template substrate (10 nM final concentration) and dNTPs (0.6 μM dNTPs, 0.75 μM [^3H]-dGTP). The heterodimeric nucleic acid substrate was generated by annealing the DNA primer pD500 (described in Shaw-Reid et al., J. Biol. Chem., 278: 2777-2780; obtained from Integrated DNA Technologies) to t500, a 500 nucleotide RNA template created by in vitro transcription (see Shaw-Reid et al., J. Biol. Chem., 278: 2777-2780). After 1 hour incubation at 37° C., reactions were quenched by 10 μl, streptavidin scintillation proximity assay beads (10 mg/mL, from Amersham Biosciences) in 0.5 M EDTA, pH 8. Microtiter plates were incubated an additional 10 minutes at 37° C. prior to quantification via Topcount (Packard).
(§2) Analogous assays were conducted substituting mutant HIV strains to determine the […] inhibition of compounds of the present invention against mutant HIV reverse transcriptase. In one strain the reverse transcriptase has the Y181C mutation and in the other strain the reverse transcriptase has the K103N mutation. The mutations were generated with the […] site-directed mutagenesis kit (Stratagene). […] The compounds set forth in the other Examples were not tested in the Y181C assay. […] The compounds set forth in the other Examples were not tested in the K103N assay.

Test [2] addresses T2, mutant HIV reverse transcriptase (Y181C mutation) (Human immunodeficiency virus type 1 group M subtype B, UniProt P04585, Y768C).
T2 construct: mutations that occur in the reverse transcriptase segment of the pol gene; made in house
Put plainly: Analogous RT inhibition assay, Y181C mutant. The class given is biochemical. As to the method: as §1, §2

Test [3] has as its system acute HIV infection of T-lymphoid cells. In words: Assay for inhibition of HIV replication (spread assay). Conditions: read-out: IC95, spread assay. The class given is cell-based. Here is the method:
An assay for the inhibition of acute HIV infection of T-lymphoid cells (alternatively referred to herein as the “spread assay”) was conducted in accordance with Vacca, J. P. et al., Proc. Natl. Acad. Sci. USA 1994, 91: 4096. […] The compounds set forth in the other Examples were not tested in the spread assay.

Where [4] appears, read: Human immunodeficiency virus 1, inhibition of acute HIV infection of T-lymphoid cells.
Setting [5] is: reverse transcriptase with K103N mutation, tested up to 20 micromolar, read-out: IC50, K103N mutant assay.
[6] abbreviates: reverse transcriptase with Y181C mutation, tested up to 20 micromolar, read-out: IC50, Y181C mutant assay.

In general, IC50 refers to the point on the concentration scale where inhibition reaches its midpoint. Usually IC95 stands for the concentration needed for an effect of 95%.

Regarding `O=C(Nc1[nH]c2ccc(Cl)cc2c1S(=O)(=O)c1ccccc1)C1CC1` [Example 3, N-[5-Chloro-3-(phenylsulfonyl)-1H-indol-2-yl]cyclopropanecarboxamide], the half-maximal inhibitory concentration (IC50) in test [1] was below 1000 nM; in test [2] it was 1000 to 20000 nM. The IC95 in test [3] (setting [4]) is below 1000 nM.

Turning to `CC(=O)OCC(=O)Nc1[nH]c2ccc(Cl)cc2c1S(=O)(=O)c1ccccc1` [Example 5, 2-{[5-chloro-3-(phenylsulfonyl)-1H-indol-2-yl]amino}-2-oxoethyl acetate], the IC50 in test [1] and in test [2] was below 1000 nM throughout. The IC95 in test [3] (setting [4]) is below 1000 nM.

With `O=C(CCOc1ccccc1)Nc1[nH]c2ccc(Cl)cc2c1S(=O)(=O)c1ccccc1` [Example 8, N-[5-chloro-3-(phenylsulfonyl)-1H-indol-2-yl]-3-phenoxypropanamide], the IC50 in test [1] and in test [2] was above 20000 nM in each case. Moreover, the IC95 in test [3] (setting [4]) was below 1000 nM.

`O=C(Nc1[nH]c2ccc(Cl)cc2c1S(=O)(=O)c1ccccc1)C1Cc2ccccc2O1` (stereo not drawn) [Example 10, N-[5-chloro-3-(phenylsulfonyl)-1H-indol-2-yl]-2,3-dihydro-1-benzofuran-2-carboxamide]: the IC50 in test [1] and in test [2] was below 1000 nM each time. For the same compound, the concentration for an effect of 95% (IC95) in test [3] (setting [4]) is below 1000 nM.

For the compound `O=C(Nc1[nH]c2ccc(Cl)cc2c1S(=O)(=O)c1ccccc1)C1COc2ccccc2O1` (stereo not drawn) [Example 11, N-[5-chloro-3-(phenylsulfonyl)-1H-indol-2-yl]-2,3-dihydro-1,4-benzodioxine-2-carboxamide], the IC50 in test [1] and in test [2] was below 1000 nM throughout. In addition, in test [3] (setting [4]), the IC95 is below 1000 nM.

As to `CC(C)C(=O)Nc1[nH]c2ccc(Cl)cc2c1S(=O)(=O)c1ccccc1` [Example 15, N-[5-chloro-3-(phenylsulfonyl)-1H-indol-2-yl]-2-methylpropanamide], the IC50 in test [1] and in test [2] was 1000 to 20000 nM throughout. Also, the IC95 in test [3] (setting [4]) is below 1000 nM.

Turning to `CCNCC(=O)Nc1[nH]c2ccc(Cl)cc2c1S(=O)(=O)c1ccccc1` [Example 21, N^1-[5-chloro-3-(phenylsulfonyl)-1H-indol-2-yl]-N^2-ethylglycinamide], the IC50 in test [1] and in test [2] was below 1000 nM in each case. Also, the IC95 in test [3] (setting [4]) was below 1000 nM.

Turning to `CCC(C)C(=O)Nc1[nH]c2ccc(Cl)cc2c1S(=O)(=O)c1ccccc1` (stereo not drawn) [Example 26, N-[5-chloro-3-(phenylsulfonyl)-1H-indol-2-yl]-2-methylbutanamide], the IC50 in test [1] is 1000 to 20000 nM; in test [2], below 1000 nM. Besides, the IC95 in test [3] (setting [4]) was below 1000 nM.

In the case of `O=C(Nc1ccc(F)cc1)Nc1[nH]c2ccc(Cl)cc2c1S(=O)(=O)c1ccccc1` [Example 31, N-[5-chloro-3-(phenylsulfonyl)-1H-indol-2-yl]-N′-(4-fluorophenyl)urea], the concentration for half-maximal inhibition (IC50) in test [1] and in test [2] was above 20000 nM in each case. The IC95 in test [3] (setting [4]) is below 1000 nM.

In the case of `CO[C@@](C(=O)Nc1[nH]c2ccc(Cl)cc2c1S(=O)(=O)c1ccccc1)(c1ccccc1)C(F)(F)F` [Example 39, (2R)-N-[5-chloro-3-(phenylsulfonyl)-1H-indol-2-yl]-3,3,3-trifluoro-2-methoxy-2-phenylpropanamide], the concentration for half-maximal inhibition (IC50) in test [1] and in test [2] was below 1000 nM each time. Moreover, in test [3] (setting [4]), the IC95 was below 1000 nM.

Regarding `O=C(NCc1cccc(Cl)c1)Nc1[nH]c2ccc(Br)cc2c1S(=O)(=O)N1CCCC1` [Example 71, N-[5-bromo-3-(pyrrolidin-1-ylsulfonyl)-1H-indol-2-yl]-N′-(3-chlorobenzyl)urea], the IC50 in test [1] (setting [5]) was below 1000 nM; in test [2], 1000 to 20000 nM. Also, the IC95 in test [3] (setting [4]) is below 1000 nM.

Take `O=C(NCc1ccccc1)Nc1[nH]c2ccc(Br)cc2c1S(=O)(=O)N1CCCC1` [Example 72, N-benzyl-N′-[5-bromo-3-(pyrrolidin-1-ylsulfonyl)-1H-indol-2-yl]urea]: the IC50 in test [1] (setting [5]) and in test [2] was below 1000 nM in each case. In test [3] (setting [4]), the IC95 was below 1000 nM.

As to `O=C(Nc1ccccn1)Nc1[nH]c2ccc(Br)cc2c1S(=O)(=O)N1CCCC1` [Example 75, N-[5-bromo-3-(pyrrolidin-1-ylsulfonyl)-1H-indol-2-yl]-N′-pyridin-2-ylurea], the IC50 in test [1] (setting [5]) is below 1000 nM; in test [2] (setting [6]) it was 1000 to 20000 nM. Moreover, in test [3] (setting [4]), the IC95 was below 1000 nM.

With `O=C(Nc1[nH]c2ccc(Br)cc2c1S(=O)(=O)N1CCCC1)Nc1c(F)cccc1F` [Example 77, N-[5-bromo-3-(pyrrolidin-1-ylsulfonyl)-1H-indol-2-yl]-N′-(2,6-difluorophenyl)urea], the IC50 in test [1] (setting [5]) was below 1000 nM; in test [2] (setting [6]) it was 1000 to 20000 nM. In addition, the 95% effect concentration (IC95) in test [3] (setting [4]) was below 1000 nM.

On to `O=C(NCc1ccncc1)Nc1[nH]c2ccc(Br)cc2c1S(=O)(=O)N1CCCC1` [Example 86, N-[5-bromo-3-(pyrrolidin-1-ylsulfonyl)-1H-indol-2-yl]-N′-(pyridin-4-ylmethyl)urea], for which the IC50 in test [1] (setting [5]) is below 1000 nM; in test [2] (setting [6]), above 20000 nM. The IC95 in test [3] (setting [4]) is below 1000 nM.

`NC(=O)C1CCCN(C(=O)Nc2[nH]c3ccc(Br)cc3c2S(=O)(=O)N2CCCC2)C1` (stereo not drawn) [Example 87, N^1-[5-bromo-3-(pyrrolidin-1-ylsulfonyl)-1H-indol-2-yl]piperidine-1,3-dicarboxamide]: the IC50 in test [1] (setting [5]) is below 1000 nM; in test [2] (setting [6]) it was above 20000 nM.

As for `O=C(NCCc1ccccn1)Nc1[nH]c2ccc(Br)cc2c1S(=O)(=O)N1CCCC1` [Example 88, N-[5-bromo-3-(pyrrolidin-1-ylsulfonyl)-1H-indol-2-yl]-N′-(2-pyridin-2-ylethyl)urea], the IC50 in test [1] was 1000 to 20000 nM; in test [2] (setting [6]), above 20000 nM.

With `NC(=O)Nc1[nH]c2ccc(Br)cc2c1S(=O)(=O)N1CCCC1` [Example 89, N-[5-bromo-3-(pyrrolidin-1-ylsulfonyl)-1H-indol-2-yl]urea], the 50% inhibitory concentration (IC50) in test [1] is below 1000 nM; in test [2] (setting [6]), above 20000 nM. The IC95 in test [3] (setting [4]) is below 1000 nM.

In the case of `O=C(NCCCc1ccccc1)Nc1[nH]c2ccc(Br)cc2c1S(=O)(=O)N1CCCC1` [Example 90, N-[5-bromo-3-(pyrrolidin-1-ylsulfonyl)-1H-indol-2-yl]-N′-(3-phenylpropyl)urea], the IC50 in test [1] was below 1000 nM; in test [2] (setting [6]), above 20000 nM. Besides, the IC95 in test [3] (Human immunodeficiency virus 1, T-lymphoid) was 1000 to 10000 nM.

Take `CN1CCN(C(=O)Nc2[nH]c3ccc(Br)cc3c2S(=O)(=O)N2CCCC2)CC1` [Example 91, N-[5-bromo-3-(pyrrolidin-1-ylsulfonyl)-1H-indol-2-yl]-4-methylpiperazine-1-carboxamide]: the IC50 in test [1] is 1000 to 20000 nM; in test [2] (setting [6]) it was above 20000 nM.

On to `CC(C)(C)CCNC(=O)Nc1[nH]c2ccc(Br)cc2c1S(=O)(=O)N1CCCC1` [Example 92, N-[5-bromo-3-(pyrrolidin-1-ylsulfonyl)-1H-indol-2-yl]-N′-(3,3-dimethylbutyl)urea], for which the concentration for half-maximal inhibition (IC50) in test [1] and in test [2] (setting [6]) was above 20000 nM in each case.

For the compound `O=C(NCCNc1ccccc1)Nc1[nH]c2ccc(Br)cc2c1S(=O)(=O)N1CCCC1` [Example 93, N-(2-anilinoethyl)-N′-[5-bromo-3-(pyrrolidin-1-ylsulfonyl)-1H-indol-2-yl]urea], the IC50 was 1000 to 20000 nM in test [1] and above 20000 nM in test [2] (setting [6]).

Take `CN(C)CCCNC(=O)Nc1[nH]c2ccc(Br)cc2c1S(=O)(=O)N1CCCC1` [Example 94, N-[5-bromo-3-(pyrrolidin-1-ylsulfonyl)-1H-indol-2-yl]-N′-[3-(dimethylamino)propyl]urea]: the IC50 was below 1000 nM in test [1] and 1000 to 20000 nM in test [2].
